Key:
[1] = xn = mol fraction of the nth substance listed; conditions: for electrical conductivity / viscosity / mass density: 101 kPa, Liquid; for electrical conductivity: Alternating current cell with electrodes; for viscosity: Concentric cylinders viscometry; for mass density: Vibrating tube method; for surface tension liquid-gas: Ring tensiometer
[2] = refractive index (Na D-line) (dimensionless); xn = mol fraction of the nth substance listed; conditions: 101 kPa, Liquid, Standard Abbe refractometry

CCCC[N+](CCCC)(CCCC)CCCC.[Cl-] [tetrabutylammonium chloride] + OCCOCCOCCO
Conditions | electrical conductivity, [1] [S/m] | mass density, [1] [kg/m3] | refractive index, [2] | surface tension liquid-gas, [1] [mN/m] | viscosity, [1] [mPa·s]
293.15 K, x1 = 0.5 | 0.0139 | 1027 | 1.48 | – | 870
293.15 K, x1 = 0.667 | 0.00681 | 1007 | 1.4851 | – | –
293.15 K, x1 = 0.75 | 0.00221 | 996 | 1.4858 | – | –
293.15 K, x1 = 0.8 | 0.00178 | 990 | 1.4871 | – | –
303.15 K, x1 = 0.5 | 0.0228 | 1021 | 1.4772 | 40.6 | 543.8
303.15 K, x1 = 0.667 | 0.0149 | 1001 | 1.4821 | 40.1 | 1399
303.15 K, x1 = 0.75 | 0.005 | 990 | 1.4836 | 39.3 | –
303.15 K, x1 = 0.8 | 0.0047 | 985 | 1.4841 | 40 | 3265.3
313.15 K, x1 = 0.5 | 0.0376 | 1015 | 1.4742 | 39.5 | 289.4
313.15 K, x1 = 0.667 | 0.0284 | 995 | 1.479 | 38.6 | 952.2
313.15 K, x1 = 0.75 | 0.0097 | 984 | 1.4806 | 38.3 | 7031.7
313.15 K, x1 = 0.8 | 0.0108 | 980 | 1.4811 | 38.4 | 1900.4
323.15 K, x1 = 0.5 | 0.055 | 1009 | 1.4711 | 38.8 | 166.4
323.15 K, x1 = 0.667 | 0.0458 | 989 | 1.476 | 38 | 493
323.15 K, x1 = 0.75 | 0.0154 | 978 | 1.4777 | 37.2 | 909.1
323.15 K, x1 = 0.8 | 0.0214 | 973 | 1.4781 | 37.3 | 862.9
333.15 K, x1 = 0.5 | 0.0805 | 1003 | 1.4678 | 38.2 | 100.8
333.15 K, x1 = 0.667 | 0.0676 | 983 | 1.4731 | 37.4 | 264.1
333.15 K, x1 = 0.75 | 0.0217 | 972 | 1.4747 | 36.6 | 452.1
333.15 K, x1 = 0.8 | 0.0252 | 968 | 1.4752 | 36.5 | 411.2
343.15 K, x1 = 0.5 | 0.11 | 997 | 1.4646 | 37.6 | 68.1
343.15 K, x1 = 0.667 | 0.0842 | 976 | 1.4701 | 36.4 | 154
343.15 K, x1 = 0.75 | 0.0282 | 966 | 1.4717 | 35.7 | 244.7
343.15 K, x1 = 0.8 | 0.0262 | 961 | 1.4722 | 35.6 | 204.5
353.15 K, x1 = 0.5 | 0.147 | 991 | 1.4614 | 37 | 44.7
353.15 K, x1 = 0.667 | 0.092 | 970 | 1.4673 | 35.6 | 91.3
353.15 K, x1 = 0.75 | 0.0319 | 960 | 1.4686 | 34.9 | 155.6
353.15 K, x1 = 0.8 | 0.0273 | 955 | 1.4692 | 34.6 | 99.9

CCCC[N+](CCCC)(CCCC)CCCC.[Cl-] [tetrabutylammonium chloride] + OCC(O)CO
Conditions | electrical conductivity, [1] [S/m] | mass density, [1] [kg/m3] | refractive index, [2] | surface tension liquid-gas, [1] [mN/m] | viscosity, [1] [mPa·s]
293.15 K, x1 = 0.167 | 0.0162 | 1040 | 1.4781 | – | 1100
293.15 K, x1 = 0.2 | 0.0192 | 1029 | 1.4776 | – | 950
293.15 K, x1 = 0.25 | 0.017 | 1014 | 1.4802 | – | 1170
303.15 K, x1 = 0.167 | 0.0307 | 1034 | 1.4754 | 47.1 | 541.3
303.15 K, x1 = 0.2 | 0.0358 | 1023 | 1.4747 | 46.7 | 476.1
303.15 K, x1 = 0.25 | 0.0309 | 1008 | 1.4774 | 46 | 580
313.15 K, x1 = 0.167 | 0.0492 | 1027 | 1.4726 | 46.2 | 261
313.15 K, x1 = 0.2 | 0.0525 | 1017 | 1.4718 | 45.9 | 225
313.15 K, x1 = 0.25 | 0.0485 | 1001 | 1.4745 | 44.9 | 293.3
323.15 K, x1 = 0.167 | 0.0788 | 1020 | 1.4697 | 45.5 | 137.3
323.15 K, x1 = 0.2 | 0.0863 | 1010 | 1.4687 | 44.9 | 115.7
323.15 K, x1 = 0.25 | 0.0781 | 995 | 1.4716 | 44.1 | 157
333.15 K, x1 = 0.167 | 0.114 | 1014 | 1.4668 | 45 | 78.4
333.15 K, x1 = 0.2 | 0.131 | 1004 | 1.4658 | 44.1 | 64.7
333.15 K, x1 = 0.25 | 0.117 | 988 | 1.4685 | 43.4 | 90.7
343.15 K, x1 = 0.167 | 0.141 | 1007 | 1.4638 | 44.2 | 47.6
343.15 K, x1 = 0.2 | 0.182 | 997 | 1.4626 | 43.5 | 41.9
343.15 K, x1 = 0.25 | 0.151 | 982 | 1.4652 | 42.7 | 56.7
353.15 K, x1 = 0.167 | 0.222 | 1000 | 1.4607 | 43.5 | 32
353.15 K, x1 = 0.2 | 0.264 | 991 | 1.4603 | 42.9 | 25
353.15 K, x1 = 0.25 | 0.24 | 976 | 1.462 | 41.9 | 36.7

CCCC[N+](CCCC)(CCCC)CCCC.[Cl-] [tetrabutylammonium chloride] + OCCO
Conditions | electrical conductivity, [1] [S/m] | mass density, [1] [kg/m3] | refractive index, [2] | surface tension liquid-gas, [1] [mN/m] | viscosity, [1] [mPa·s]
293.15 K, x1 = 0.2 | 0.000202 | 1145 | 1.4615 | – | 85.33
293.15 K, x1 = 0.25 | 0.000154 | 1130 | 1.4653 | – | 105
293.15 K, x1 = 0.333 | 9.91e-05 | 1105 | 1.4703 | – | 212
303.15 K, x1 = 0.2 | 0.000272 | 1138 | 1.4585 | 40.7 | 56.9
303.15 K, x1 = 0.25 | 0.000214 | 1123 | 1.4619 | 40.1 | 71.9
303.15 K, x1 = 0.333 | 0.000139 | 1099 | 1.4672 | 39.3 | 127
313.15 K, x1 = 0.2 | 0.000354 | 1132 | 1.4554 | 39.9 | 37.16
313.15 K, x1 = 0.25 | 0.000293 | 1117 | 1.4587 | 39.4 | 45.17
313.15 K, x1 = 0.333 | 0.00022 | 1092 | 1.4641 | 38.3 | 76.43
323.15 K, x1 = 0.2 | 0.00045 | 1125 | 1.4523 | 39.1 | 26.27
323.15 K, x1 = 0.25 | 0.000387 | 1110 | 1.4556 | 38.3 | 29.37
323.15 K, x1 = 0.333 | 0.00026 | 1086 | 1.4609 | 37.2 | 49.3
333.15 K, x1 = 0.2 | 0.000521 | 1119 | 1.4491 | 38.3 | 19.7
333.15 K, x1 = 0.25 | 0.000457 | 1104 | 1.4525 | 37.5 | 20.23
333.15 K, x1 = 0.333 | 0.000375 | 1079 | 1.4578 | 36.6 | 33.6
343.15 K, x1 = 0.2 | 0.000615 | 1112 | 1.445 | 37.5 | 14.85
343.15 K, x1 = 0.25 | 0.000567 | 1097 | 1.4495 | 36.8 | 14.53
343.15 K, x1 = 0.333 | 0.000385 | 1073 | 1.4545 | 35.7 | 23.53
353.15 K, x1 = 0.2 | 0.000722 | 1106 | 1.4427 | 36.8 | 10.5
353.15 K, x1 = 0.25 | 0.00062 | 1091 | 1.4469 | 36.1 | 10.7
353.15 K, x1 = 0.333 | 0.000468 | 1067 | 1.4509 | 34.9 | 16

From the NIST ThermoML archive (doi:10.1021/je5002126)
